# According to the supplement of paper PMC10307832:
# Columns and labels:
# Test in all cases: relative viability (nuclei count vs DMSO), 5 days (fraction); higher = more cells survive
# ALW-II-49-7 + Lapatinib = compound: Cc1ccc(C(=O)Nc2cccc(C(F)(F)F)c2)cc1Nc1cncc(C(N)=O)c1 [ALW-II-49-7] + CS(=O)(=O)CCNCc1ccc(-c2ccc3ncnc(Nc4ccc(OCc5cccc(F)c5)c(Cl)c4)c3c2)o1 [Lapatinib] (partner 2 µM)
# In short: (§1)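 Relative viability was taken as the ratio of nuclei in treated wells to nuclei in vehicle wells. Lung cancer cell lines in 1536-well plates received compounds by pin tool one day after seeding, either one drug alone or a fixed anchor-drug dose plus five library-drug doses (not always all listed) in √10 steps. Nuclei were counted on 4× images after 5 days of treatment, and values are medians of duplicate plates.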
# XMD13-2 + Bortezomib = compound: C1CC1C(=O)NC2=NNC3=C2C=CC(=C3)C4=CC(=CC=C4)C(=O)NC5CC5 [XMD13-2] + CC(C)C[C@H](NC(=O)[C@H](Cc1ccccc1)NC(=O)c1cnccn1)B(O)O [Bortezomib] (partner 0.002 µM)
# In short: as §1
# Dasatinib + Bortezomib = compound: Cc1nc(Nc2ncc(C(=O)Nc3c(C)cccc3Cl)s2)cc(N2CCN(CCO)CC2)n1 [Dasatinib] + CC(C)C[C@H](NC(=O)[C@H](Cc1ccccc1)NC(=O)c1cnccn1)B(O)O [Bortezomib] (partner 0.002 µM)
# In short: as §1
# ALW-II-49-7 + Pemetrexed = compound: Cc1ccc(C(=O)Nc2cccc(C(F)(F)F)c2)cc1Nc1cncc(C(N)=O)c1 [ALW-II-49-7] + Nc1nc2[nH]cc(CCc3ccc(C(=O)N[C@@H](CCC(=O)O)C(=O)O)cc3)c2c(=O)[nH]1 [Pemetrexed] (partner 0.2 µM)
# In short: as §1
Cell Line,relative viability (ALW-II-49-7 + Lapatinib; first compound 0.08 µM),relative viability (ALW-II-49-7 + Lapatinib; first compound 0.253 µM),relative viability (ALW-II-49-7 + Lapatinib; first compound 0.8 µM),relative viability (ALW-II-49-7 + Lapatinib; first compound 2.53 µM),relative viability (ALW-II-49-7 + Lapatinib; first compound 8 µM),relative viability (XMD13-2 + Bortezomib; first compound 0.05 µM),relative viability (XMD13-2 + Bortezomib; first compound 0.1581 µM),relative viability (XMD13-2 + Bortezomib; first compound 0.5 µM),relative viability (XMD13-2 + Bortezomib; first compound 1.581 µM),relative viability (XMD13-2 + Bortezomib; first compound 5 µM),relative viability (Dasatinib + Bortezomib; first compound 0.005 µM),relative viability (Dasatinib + Bortezomib; first compound 0.01581 µM),relative viability (Dasatinib + Bortezomib; first compound 0.05 µM),relative viability (Dasatinib + Bortezomib; first compound 0.1581 µM),relative viability (Dasatinib + Bortezomib; first compound 0.5 µM),relative viability (ALW-II-49-7 + Pemetrexed; first compound 0.08 µM),relative viability (ALW-II-49-7 + Pemetrexed; first compound 0.253 µM),relative viability (ALW-II-49-7 + Pemetrexed; first compound 0.8 µM),relative viability (ALW-II-49-7 + Pemetrexed; first compound 2.53 µM),relative viability (ALW-II-49-7 + Pemetrexed; first compound 8 µM)
NCI-H1650,0.955,0.846,0.854,1.04,0.753,0.22,0.201,0.198,0.195,0.191,0.227,0.195,0.193,0.217,0.2,0.352,0.379,0.383,0.378,0.406
NCI-H1651,0.719,0.879,0.672,0.776,0.794,1.02,0.914,0.946,0.92,0.965,0.947,0.873,0.795,0.859,0.825,0.5,0.631,0.615,0.574,0.441
NCI-H1666,0.533,0.674,0.695,0.831,0.652,0.893,0.838,1.02,0.763,0.468,0.763,0.663,0.718,0.582,0.288,0.783,0.944,0.831,0.847,0.785
NCI-H1734,1.07,1.07,1.05,1.04,0.898,1.35,0.954,0.887,0.729,0.768,0.754,0.508,0.79,0.425,0.561,0.427,0.448,0.428,0.404,0.443
NCI-H1755,0.904,1.04,1.04,1.04,0.608,0.992,1.02,0.984,0.934,1.03,0.842,0.759,0.645,0.538,0.297,0.456,0.48,0.4,0.416,0.403
NCI-H1792,0.673,0.881,0.943,0.98,0.774,1.16,0.996,1,0.927,1.15,0.932,0.897,0.898,0.681,0.505,0.561,0.531,0.446,0.857,0.602
NCI-H1915,0.949,1.01,0.914,0.848,0.644,1.06,1.01,1.01,0.979,1.01,0.982,0.809,0.876,0.593,0.298,0.451,0.546,0.49,0.457,0.375
NCI-H1975,0.742,0.835,0.763,0.994,0.87,0.45,0.384,0.345,0.392,0.445,0.393,0.279,0.348,0.212,0.22,0.312,0.306,0.266,0.296,0.244
NCI-H1993,0.663,0.811,0.863,0.825,0.695,1.42,1.08,1.02,0.972,1.04,0.743,0.851,1.34,0.847,0.497,0.61,0.515,0.631,0.591,0.64
NCI-H2009,0.913,1.02,0.819,0.728,0.466,1.05,1.12,1.4,1.02,1.01,1.13,0.97,0.884,0.354,0.173,0.971,1.14,0.955,0.751,0.749
NCI-H2023,0.801,0.6,0.866,0.743,0.58,1.16,0.928,1.06,0.986,0.983,0.788,0.818,0.791,0.705,0.669,0.235,0.23,0.237,0.214,0.242
NCI-H2085,0.892,0.858,0.718,0.776,0.707,1.09,1.07,1.15,0.93,1.1,1.09,0.958,0.86,0.397,0.262,0.867,1.01,0.913,1.01,0.854
NCI-H2087,0.976,1.07,0.839,1.15,1.01,0.917,1.25,1.08,0.782,0.856,0.751,0.769,0.869,0.815,0.665,0.637,0.679,0.673,0.606,0.621
NCI-H2126,0.603,0.826,0.765,0.737,0.752,1.16,1.09,1.18,1.05,1.13,1.08,1.07,1.16,0.988,0.587,0.733,0.708,0.654,0.661,0.755
NCI-H2228,0.996,0.595,0.984,1.08,0.659,1.48,1.16,1,1,0.872,0.645,0.988,0.888,0.691,0.47,0.323,0.356,0.356,0.289,0.134
NCI-H2347,1.11,0.958,1.11,0.85,0.8,1.02,0.977,1.09,0.952,1.09,0.732,0.857,0.929,0.324,0.368,0.438,0.441,0.417,0.509,0.377
NCI-H2405,1.01,1.24,0.972,0.938,0.89,1.07,0.964,0.957,0.926,0.991,0.879,0.956,0.616,0.475,0.306,1.14,1.12,0.898,1.06,0.791
NCI-H3122,1.11,0.92,1.05,1.11,1.05,1.06,1.05,1.02,1.1,0.985,0.988,0.94,1.02,1.05,0.815,0.201,0.174,0.207,0.216,0.186
PC-3 [JPC-3],0.387,0.461,0.485,0.471,0.419,0.807,0.778,0.884,0.871,0.867,0.839,0.733,0.925,0.818,0.465,0.976,0.909,0.843,1.27,0.947
PC-14,0.286,0.303,0.308,0.331,0.292,0.903,0.888,0.828,0.806,0.916,0.822,0.96,0.969,0.585,0.35,0.15,0.165,0.13,0.138,0.113
RERF-LC-KJ,0.867,0.948,0.867,0.941,0.859,1.08,1.05,1.2,0.97,1.14,1.1,0.765,0.965,0.955,0.77,0.475,0.518,0.472,0.439,0.478
SK-LU-1,0.738,0.984,0.774,,0.607,1.26,1.41,1.1,0.764,1.15,0.954,0.777,0.726,0.33,0.406,0.992,1.08,1.04,0.834,0.569
SW 1573,1.14,1.21,1.1,1.2,1.15,0.974,1.03,1.03,0.977,0.947,0.875,0.881,0.861,0.618,0.395,0.608,0.847,0.77,0.667,0.827
